Results from patent US20250011829A1, “MEMBRANE FOR MICROBIOLOGICAL ANALYSIS” (Sartorius Stedim Biotech GmbH, priority 2021, published 2025).

Key:
L. anisa WDCM 00106 = assay type: cell-based, Legionella anisa
[1] = ILC; for adsorbed amount of surfactant on the membrane: surfactant concentration 0.1 g/L
[2] = Evaluation of wettability by filtration with activated carbon; assay type: physicochemical; conditions: membrane filters impregnated with 0.1 wt % surfactant; white spots indicate inhomogeneous wetting
Description: The wetting ability of membrane filters obtained in Example 1, which were impregnated with 0.1 wt % of each of Tween 80, Triton X100, Brij 35, SDS, and SDBS, was evaluated after filtration with activated carbon. For this purpose, the pieces with a diameter of 4.7 cm were placed with the application side of the membrane pointing upwards on a frit of a filtration unit before cups are attached thereon. All valves of the filtration bar are closed. 0.2 g of activated carbon is suspended in 1 L of RO water and 100 ml of filtration volume is measured after vigorous stirring and filled into the filtration cups. The pump is then switched on and the valves are opened. After filtration, the black filter pieces are placed on a white sheet of paper and photographed. White spots indicate an inhomogeneous wetting pattern (FIG. 1).

Row | Substance | colony forming units of L. anisa (L. anisa WDCM 00106) | adsorbed amount of surfactant on the membrane [1] [μg/cm^2] | adsorbed amount relative to SDBS ([1]; surfactant concentration 1.0 g/L) | wetting pattern after filtration with activated carbon [2]
1 | sodium dodecyl benzyl sulfonate [SDBS] | sharp decrease in colony forming units | 8.73 |  | 
2 | 4-(1,1,3,3-tetramethylbutyl)-phenyl-polyethylene glycol [Triton X-100] |  | 51.5 | two times higher compared to SDBS | 
3 | polyoxyethylene(x)-sorbitan monooleate (x=80) [Tween 80] |  |  |  | white wetting spots were visible
